According to patent publication US4581453A, “Guanidinothiazole derivatives containing alkylene bridges, and their use for influencing lipid metabolism” (Bayer Aktiengesellschaft, priority 1982, dated 1986):
Converted amounts (≈) assume the structure as drawn. Where a name gives a salt, the structure may show the parent alone.

Key:
[1] = tested on: Aspergillus fumigatus; assay: Antimycetic in vitro activity, series dilution test; assay type: cell-based; conditions: Sabourands' milieu d'epreuve, 96 hours, 20° C.; for MIC: read-out: Minimum inhibitory concentration
Method: (§1) The in vitro tests were carried out in a series dilution test using germ inocula of on average 5×10^4 germs/ml of substrate. The nutrient medium used was
(§2) (a) Sabourands' milieu d'epreuve for dermatophytes and moulds; and
(§3) (b) meat extract/dextrose broth for yeasts.
(§4) The incubation temperature was 20° C. and the incubation time was 24 to 96 hours for yeasts and 96 hours for dermatophytes and moulds.

[2] = tested on: Candida albicans; assay: as above; assay type: cell-based; conditions: meat extract/dextrose broth, 24 to 96 hours, 20° C.; for MIC: read-out: Minimum inhibitory concentration
Method: as §1, §2, §3, §4

[3] = tested on: Microsporum canis; assay: as above; assay type: cell-based; conditions: Sabourands' milieu d'epreuve, 96 hours, 20° C.; for MIC: read-out: Minimum inhibitory concentration
Method: as §1, §2, §3, §4

[4] = tested on: Torulopsis glabrata; assay: as above; assay type: cell-based; conditions: meat extract/dextrose broth, 24 to 96 hours, 20° C.; for MIC: Nakaseomyces glabratus, read-out: Minimum inhibitory concentration
Method: as §1, §2, §3, §4

[5] = tested on: Trichophyton mentagrophytes; assay: as above; assay type: cell-based; conditions: Sabourands' milieu d'epreuve, 96 hours, 20° C.; for MIC: read-out: Minimum inhibitory concentration
Method: as §1, §2, §3, §4

[6] = tested on: proliferation of the intima (arteria carotis comm.); conditions: rat; heparin following parenteral administration; cited from earlier work
[7] = tested on: platelet aggregation in rat PRP; assay: Platelet aggregation-inhibiting action (PAH) ex vivo, thromboatherosclerosis experiment; assay type: in vivo; conditions: po, 1.5 h, read-out: PAH ex vivo: Activity, ED50 (dose/concentration range)
Method: The change in optical density of the sample of PRP was recorded over a period of 6 minutes and was determined via the reading after 6 minutes. The percentage inhibition is calculated from the corresponding readings. Moreover, the platelet aggregation was also determined in the context of the thromboatherosclerosis experiment. In carrying out these experiments, the active substance was administered to the animals orally in a Tylose suspension over a period of 10 days. On the 10th day, the animals were exsanguinated 90 minutes after the oral administration of the substance, and the PRP was isolated by means of centrifugation. After the PRP has been isolated, in vitro measurement of the aggregation inhibition starts, analogously to the process which has been described for the in vitro experiments; but without pre-incubation of the samples. 3 parts of rat PRP were also diluted with one part of physiological saline solution.
Atherosclerotic plaques are induced in rats by combination of two noxae (risk factors), that is to say vascular lesion and hyperlipaemia. By supercooling of the arteria carotis comm. (2 minutes, -10° C.), partial or complete endothelial scaling occurs in a locally restricted area. Proliferation of the intima occurs within 10 days, which is a relatively short period for such experiments, and largely corresponds to the early stages of atherosclerotic plaques in humans. The proliferation zones are removed and weighed. The moist weight in the supercooled segment of 1 cm is about 200-300 μg. The animals are additionally given a high-fat diet having the following composition: […]

[8] = tested on: proliferation of the intima (arteria carotis comm.); assay: Anti-atherosclerotic action, thromboatherosclerosis model; assay type: in vivo; conditions: po; rat, per orally; read-out: anti-atherosclerotic: Activity, ED50 (dose/concentration range)
Method: Because of some fluid transitions between atherosclerosis and thrombosis, we have called the method used "thromboatherosclerosis model".
Folia angiologica 28, 85 (1980).
Atherosclerotic plaques are induced in rats by combination of two noxae (risk factors), that is to say vascular lesion and hyperlipaemia. By supercooling of the arteria carotis comm. (2 minutes, -10° C.), partial or complete endothelial scaling occurs in a locally restricted area. Proliferation of the intima occurs within 10 days, which is a relatively short period for such experiments, and largely corresponds to the early stages of atherosclerotic plaques in humans. The proliferation zones are removed and weighed. The moist weight in the supercooled segment of 1 cm is about 200-300 μg. The animals are additionally given a high-fat diet having the following composition:
52% of normal feed (Altromin®).
The lipid deposits are stained with the fat-soluble dyestuff Sudan IV and can be determined as an additional parameter.

[9] = target: T1, Cyclooxygenase (Homo sapiens, UniProt P23219); assay: Arachidonic acid metabolism in platelets: cyclooxygenase inhibition; assay type: cell-based; conditions: 3H-arachidonic acid, read-out: Cyclooxygenase inhibition: Activity, ED50 (dose/concentration range) (converted)
T1 construct: endogenous in cells; host or cells: human platelets
Excerpt: In human platelets, ^3 H-arachidonic acid is converted into the products of the cyclooxygenase/thromboxane synthetase path, in particular thromboxane A2, and those of the lipoxygenase path, HETE. Separation of the resulting products by thin layer chromatography gives a characteristic pattern. Inhibitors of the individual enzymatic reactions modify this pattern in a typical manner (Bailey, J. M. et al., Prostaglandins 13, 479-492 (1977)). The action of the compounds according to the invention on individual reactions in arachidonic acid metabolism are shown in Table 2.

[10] = tested on: liver cholesterol; assay: Cholesterol loading test; assay type: in vivo, Wistar rats; conditions: rat, 24 hours
Method: Cholesterol loading tests were carried out on conscious male or female Wistar rats weighing between 130-230 g.
Cholesterol and the substance to be tested were simultaneously administered orally in 0.75% strength tragacanth suspension. After 24 hours, the animals were sacrificed and the cholesterol content of the liver was determined. Cholesterol was determined by the Liebermann-Burchard method using the test combination of Boehringer Mannheim. Control animals received a corresponding volume of cholesterol/tragacanth suspension without the test substance. To monitor the rise in cholesterol as a result of cholesterol loading, tragacanth suspension containing no cholesterol was administered orally to another control group.

T1 sequence (P23219 24-599): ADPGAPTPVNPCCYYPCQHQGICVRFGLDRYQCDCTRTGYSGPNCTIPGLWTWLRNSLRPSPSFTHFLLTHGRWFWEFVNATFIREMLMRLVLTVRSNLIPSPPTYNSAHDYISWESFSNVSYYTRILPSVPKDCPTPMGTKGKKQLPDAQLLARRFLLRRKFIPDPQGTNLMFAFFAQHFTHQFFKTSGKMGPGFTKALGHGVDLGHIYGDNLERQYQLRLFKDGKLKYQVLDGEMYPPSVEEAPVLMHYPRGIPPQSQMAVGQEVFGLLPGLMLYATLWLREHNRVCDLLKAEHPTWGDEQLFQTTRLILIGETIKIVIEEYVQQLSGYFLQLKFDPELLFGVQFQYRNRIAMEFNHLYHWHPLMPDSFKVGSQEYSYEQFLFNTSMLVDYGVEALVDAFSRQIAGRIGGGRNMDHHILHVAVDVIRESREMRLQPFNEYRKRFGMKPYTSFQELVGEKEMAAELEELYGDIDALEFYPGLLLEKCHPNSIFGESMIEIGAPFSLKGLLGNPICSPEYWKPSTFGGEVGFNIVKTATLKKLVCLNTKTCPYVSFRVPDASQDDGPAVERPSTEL

c1ccc2c(-c3csc(N=C4NCCCN4)n3)cccc2c1 [Example 24]
MIC [1]: < 1 µg/mL
MIC [2]: 2 µg/mL (≈ 6.48 µM)
MIC [3]: < 1 µg/mL
MIC [4]: 8 µg/mL (≈ 25.9 µM)
MIC [5]: < 1 µg/mL

CC(=O)N1CCN(c2ccc(OCC3COC(Cn4ccnc4)(c4ccc(Cl)cc4Cl)O3)cc2)CC1 (centres unmarked) [Ketoconazol, ketoconazol, reference compound]
MIC [1]: 16 µg/mL (≈ 30.1 µM)
MIC [2]: < 1 µg/mL
MIC [3]: 4 µg/mL (≈ 7.53 µM)
MIC [4]: 1 µg/mL (≈ 1.88 µM)
MIC [5]: < 1 µg/mL

O=C(O)c1cccnc1 [nicotinic acid]
effectiveness in thromboatherosclerosis model (in words), prior agents [6]: ineffective

Cc1cc(Cl)ccc1-c1csc(N=C2NCCCN2)n1 [Example 33, 2-(N-(4'-(4"-Chloro-2"-methylphenyl)-thiazol-2'-yl)imino)-hexahydropyrimidine hydrochloride]
MIC [1]: 2 µg/mL
MIC [2]: 2 µg/mL
MIC [3]: 2 µg/mL
MIC [4]: 16 µg/mL
MIC [5]: 2 µg/mL

CN1CCCNC1=Nc1nc(-c2ccccc2)cs1 [Example 49]
ED50 [7]: 100 mg/kg
ED50 [8]: 100 mg/kg
IC50 [9]: 36.7 µM

Clc1ccc(C2(Cn3ccnc3)OCC(COc3ccc(-c4ccccc4)cc3)O2)c(Cl)c1 (centres unmarked) [Doconazol, doconazol, reference compound]
Minimum inhibitory concentration [1]: 4 µg/mL (≈ 8.31 µM)
Minimum inhibitory concentration [2]: < 1 µg/mL
Minimum inhibitory concentration [3]: 8 µg/mL (≈ 16.6 µM)
Minimum inhibitory concentration [4]: < 1 µg/mL
Minimum inhibitory concentration [5]: < 1 µg/mL

c1ccc(-c2csc(N=C3NCCCN3)n2)cc1 [Example 22]
MIC [1]: < 1 µg/mL
MIC [2]: 4 µg/mL (≈ 15.5 µM)
MIC [3]: < 1 µg/mL
MIC [4]: 32 µg/mL (≈ 124 µM)
MIC [5]: < 1 µg/mL

neomycin
effectiveness in thromboatherosclerosis model (in words), prior agents [6]: ineffective

c1cc2c(cc1-c1csc(N=C3NCCCN3)n1)CCCC2 [Example 25]
ED50 [7]: 100 mg/kg
Reduction in the increase in liver cholesterol in percent in comparison with the control, following oral cholesterol loading ([10]; 10 mg/kg per orally): 65.3%
Reduction in the increase in liver cholesterol in percent in comparison with the control, following oral cholesterol loading ([10]; 30 mg/kg per orally): 78.1%

heparin
effectiveness in thromboatherosclerosis model (in words), prior agents [6]: effective

Cc1nc(N=C2NCCCN2)sc1C(=O)Nc1ccc(Cl)cc1 [Example 17]
ED50 [7]: 100 mg/kg
Reduction in the increase in liver cholesterol in percent in comparison with the control, following oral cholesterol loading ([10]; 100 mg/kg per orally): 56.1%

Clc1ccc(-c2csc(N=C3NCCCN3)n2)c(Cl)c1 [Example 27]
MIC [1]: 8 µg/mL (≈ 24.4 µM)
MIC [2]: < 1 µg/mL
MIC [3]: < 1 µg/mL
MIC [4]: 16 µg/mL (≈ 48.9 µM)
MIC [5]: < 1 µg/mL
